{
  "source": "BindingDB's records for doi:10.1016/s0960-894x(00)00493-5",
  "about": "(Wyeth-Ayerst Research, 2000)",
  "molecular_target": "Proto-oncogene tyrosine-protein kinase Src (Homo sapiens, UniProt P12931)",
  "sequence (P12931 2-536 limits assumed)": "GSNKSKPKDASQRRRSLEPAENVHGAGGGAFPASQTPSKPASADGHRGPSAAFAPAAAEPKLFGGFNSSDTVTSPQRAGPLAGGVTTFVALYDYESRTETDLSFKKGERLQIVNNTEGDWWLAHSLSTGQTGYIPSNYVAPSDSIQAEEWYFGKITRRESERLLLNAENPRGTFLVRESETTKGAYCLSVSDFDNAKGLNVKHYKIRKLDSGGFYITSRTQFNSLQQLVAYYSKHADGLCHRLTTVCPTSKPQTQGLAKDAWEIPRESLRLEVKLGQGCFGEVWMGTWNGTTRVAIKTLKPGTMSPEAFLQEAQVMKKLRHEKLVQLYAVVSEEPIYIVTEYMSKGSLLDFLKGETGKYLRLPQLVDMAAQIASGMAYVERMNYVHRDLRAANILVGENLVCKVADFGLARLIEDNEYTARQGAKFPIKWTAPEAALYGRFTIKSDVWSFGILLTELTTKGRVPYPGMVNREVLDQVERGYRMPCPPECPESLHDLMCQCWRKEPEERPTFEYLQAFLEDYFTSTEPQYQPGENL",
  "test": "Kinase inhibition Assay",
  "settings": "pH 7.5; 30 °C",
  "protocol": "Src kinase activity was measured in an ELISA format. IC50 is the inhibitor concentration which inhibits 50% of kinase activity that catalyzes the transfer of the terminal phosphate from ATP to the substrate.",
  "data": [
    {"molecule": "COc1cc2ncc(C#N)c(NCc3cc(OC)c(OC)c(OC)c3)c2cc1OC", "note": "[6,7-dimethoxy-4-{[(3,4,5-trimethoxyphenyl)methyl]amino}quinoline-3-carbonitrile]", "values": [
      {"measurement": "IC50", "result": "> 10", "unit": "µM"}
    ]}
  ]
}
